Results reported in ChEMBL document CHEMBL1201862, “PubChem BioAssay data set” (2004).
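Following 48 hours of exposure in 96-well plates, responses at five concentrations were used to interpolate endpoints linearly. The concentration for 50% growth inhibition is given as GI50.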 Calls of active or inactive are those of the source. Cut-off read from the data, not from the text of the source: active = GI50 up to about 1.1 µM and inactive = higher.

How the values were obtained:
Experiment in all cases: DTP human tumour cell line panel, 48 h
KM-20L2 = test system: KM-20L2
TK-10 = test system: TK-10
HCC 2998 = test system: HCC 2998
LOX IMVI = test system: LOX IMVI
SK-MEL-2 = test system: SK-MEL-2
A549 = test system: A549
K562 = test system: K562
U-251 = test system: U-251
SF-539 = test system: SF-539
786-0 = test system: 786-0
CCRF-CEM = test system: CCRF-CEM
OVCAR-3 = test system: OVCAR-3
NCI-H460 = test system: NCI-H460
UO-31 = test system: UO-31
ACHN = test system: ACHN

Measured: GI50

C/C(CC(=O)Nc1cccc(Cl)c1C)=N\NC(=O)c1ccncc1
inactive: KM-20L2 > 100 µM | TK-10 > 100 µM | HCC 2998 > 100 µM | LOX IMVI > 100 µM | SK-MEL-2 > 100 µM | A549 > 100 µM | K562 > 100 µM | U-251 > 100 µM | SF-539 > 100 µM | 786-0 > 100 µM | CCRF-CEM > 100 µM | OVCAR-3 > 100 µM | NCI-H460 > 100 µM | UO-31 > 100 µM

O=[N+]([O-])c1ccc(-n2nnc(C3=NCCCN3)c2-c2ccc(Cl)cc2)cc1
inactive: KM-20L2 > 100 µM | TK-10 > 100 µM | HCC 2998 > 100 µM | ACHN > 100 µM | LOX IMVI > 100 µM | SK-MEL-2 33.5 µM | A549 > 100 µM | K562 61.1 µM | U-251 > 100 µM | SF-539 > 100 µM | 786-0 > 100 µM | CCRF-CEM > 100 µM | OVCAR-3 > 100 µM | NCI-H460 > 100 µM | UO-31 42.3 µM

OC12CCCCCC1(N1CCOCC1)c1ccccc12 (stereo not drawn)
inactive: KM-20L2 > 100 µM | TK-10 > 100 µM | HCC 2998 > 100 µM | ACHN > 100 µM | LOX IMVI > 100 µM | SK-MEL-2 > 100 µM | A549 > 100 µM | K562 > 100 µM | U-251 > 100 µM | SF-539 > 100 µM | 786-0 > 100 µM | CCRF-CEM > 100 µM | OVCAR-3 > 100 µM | NCI-H460 > 100 µM | UO-31 > 100 µM

O=C1O[C@@H](c2ccccc2)C[C@H]1CN1CCOCC1
inactive: KM-20L2 > 100 µM | TK-10 84.9 µM | HCC 2998 > 100 µM | ACHN > 100 µM | LOX IMVI > 100 µM | SK-MEL-2 > 100 µM | A549 > 100 µM | K562 40.7 µM | U-251 > 100 µM | SF-539 > 100 µM | 786-0 28.2 µM | CCRF-CEM 33.7 µM | OVCAR-3 > 100 µM | NCI-H460 > 100 µM | UO-31 > 100 µM

CCOC(=O)CC1=N/C(=N/C(=N)N[N+](=O)[O-])SC1
inactive: KM-20L2 > 100 µM | TK-10 > 100 µM | HCC 2998 > 100 µM | ACHN > 100 µM | LOX IMVI > 100 µM | SK-MEL-2 > 100 µM | A549 > 100 µM | K562 > 100 µM | U-251 > 100 µM | SF-539 > 100 µM | 786-0 > 100 µM | CCRF-CEM > 100 µM | OVCAR-3 > 100 µM | NCI-H460 > 100 µM | UO-31 > 100 µM

CC1(Br)CC2OC3(Br)C=CC(C)(O)C2(CC1=O)C3(C)C (stereo not drawn)
inactive: KM-20L2 > 100 µM | TK-10 > 100 µM | HCC 2998 > 100 µM | ACHN > 100 µM | LOX IMVI > 100 µM | SK-MEL-2 > 100 µM | A549 > 100 µM | K562 19.1 µM | U-251 > 100 µM | SF-539 > 100 µM | 786-0 > 100 µM | CCRF-CEM 16 µM | OVCAR-3 > 100 µM | NCI-H460 > 100 µM | UO-31 > 83.9 µM

Cc1ccc(C(=O)C(C2=Nc3nnc(N)n3C2=O)C2=Nc3nnc(N)n3C2=O)cc1
inactive: KM-20L2 > 100 µM | TK-10 > 100 µM | HCC 2998 > 100 µM | ACHN > 100 µM | LOX IMVI > 100 µM | SK-MEL-2 > 100 µM | A549 > 100 µM | K562 > 100 µM | SF-539 > 100 µM | 786-0 > 100 µM | CCRF-CEM > 100 µM | OVCAR-3 > 100 µM | NCI-H460 > 100 µM | UO-31 > 100 µM

CC(C)C(=O)Nc1nc2c(ncn2C2OC(CO)C(O)C2O)c(=O)[nH]1 (stereo not drawn)
inactive: KM-20L2 > 100 µM | TK-10 > 100 µM | HCC 2998 > 100 µM | ACHN > 100 µM | LOX IMVI > 100 µM | SK-MEL-2 > 100 µM | A549 > 100 µM | K562 > 100 µM | U-251 > 100 µM | SF-539 > 100 µM | 786-0 > 100 µM | CCRF-CEM > 100 µM | OVCAR-3 > 100 µM | NCI-H460 > 100 µM | UO-31 > 100 µM
